# Laboratory results published in patent US20040167226A1, “Methods for the treatment of pain and traumatic injury using benzamides and compositions containing the same” (priority 2002, published 2004).
# Experiments:
# [1] = test system: neurofilament (nerve fiber density); experiment: Immunohistochemistry of neurofilament on transverse spinal cord sections; format: in vivo; conditions: rats after spinal cord injury; anti-neurofilament staining; sections rostral and caudal to epicenter
# Protocol: (§1) Compound A was tested in both the rat dorsal hemisection (Guth, L. et al. (1980), J. Neurosurgery 52: 73-86) and contusion models (Scheff, S. W. (2003), J. Neurotrauma 20: 179-193) for evaluation of efficacy. These models are widely used in the field of spinal cord injury and replicate many of the pathological aspects found in humans who have sustained a spinal cord injury. Rats were subjected to an experimental spinal cord injury at T8, and were given Compound A shortly thereafter. Behavioral tests to assess the locomotion deficits were performed after the lesion. At the end of the experiment, animals were sacrificed and the spinal cord was collected for histopathological analysis. […] Histological assessment of the tissue at the site of injury was also made in both the drug treated and untreated group. In particular, subsequent to the behavioral measurement, spinal cord tissue from each animal was obtained and serial transverse tissue sections were stained with either anti-neurofilament antibody or antibodies specific for the inflammatory markers, tumor necrosis factor alpha (TNFα) and for the inducible form of nitric oxide synthetase (iNOS), followed by incubation with Alexa Fluor®-conjugated secondary antibodies.
# [2] = test system: contused spinal cord injury; experiment: Spinal cord injury, contusion model, BBB locomotor score; format: in vivo, Sprague-Dawley rats; conditions: SCI Study No. 4; 14 day contusion; rats; 20 mg/kg BID i.p., 75% PEG200 formulation
# Protocol: as §1, with “In particular, subsequent to the behavioral measurement, spinal cord tissue from each animal was obtained and serial transverse tissue sections were stained with either anti-neurofilament antibody or antibodies specific for the inflammatory markers, tumor necrosis factor alpha (TNFα) and for the inducible form of nitric oxide synthetase (iNOS), followed by incubation with Alexa Fluor®-conjugated secondary antibodies.” left out
# The BBB score is a 21-point scale representing 21 stages of locomotor recovery after spinal cord injury. The scale is based on unique combinations of scored behaviors, ranked according to time of appearance after injury. […]
# [3] = test system: Taxol-induced mechanical allodynia; experiment: Taxol-induced neuropathic pain rat model, 50% paw withdrawal threshold (up-down method); format: in vivo, Sprague-Dawley rats; conditions: rats
# Text: Sprague-Dawley male rats with 150-160 grams of body weight were used in the studies presented herein. Rats were trained in the enclosure one hour per day in the morning for a one week period prior to obtaining the baseline response. Whereas the mouse studies assessed percentage of response, the rat studies determined 50% of the paw withdrawal threshold, also called the up-down method as developed by Chung and colleagues. In order to obtain consistent data, naïve rats with paw withdrawal threshold no less than 4 grams were included for further studies. Taxol at a dose of 1 mg/kg (body weight) was administered daily to rats intraperitoneally. As observed in mice, the rats treated with Taxol daily developed stable mechanical allodynia on day 9 and thereafter. On day 13 and day 14 of Taxol induction, the rats pain behavior in term of 50% of paw withdrawal threshold was measured. Only those rats with paw withdrawal threshold measurements no greater than 7 grams for two consecutive days were included for drug testing. Generally speaking, the mechanical allodynia in Taxol treated rats fell in the range of 1-4 gram of paw withdrawal threshold.
# 1 ml per kg of body weight of either 50 mg/ml or 20 mg/ml of Compound A was administered to rats via oral gavage feeding (p.o.), to yield a dose of either 50 mg/Kg (body weight) or 20 mg/Kg (body weight). The same corresponding volume of 1% methylcellulose was used as vehicle control. 34 male Sprague-Dawely rats were employed for the study. The baseline paw withdrawal threshold (grams of force applied to the plantar area of the right hind paw) and neuropathic pain induction with daily intraperitoneal administration of 1 mg/kg (body weight) was performed as indicated in the previous section. The Taxol treatment was continued for 15 days until the pain threshold remained relatively stable. Animals with baseline greater than 4 grams and with threshold […] post induction were included in the drug testing. 27 rats met the criteria for the next step studies and were randomly assigned into four groups. Group 1 consisting of 7 rats was given 1% methylcellulose as vehicle control group, 1 ml of vehicle per kilograms of body weight was administered to animal via p.o.; group 2 with 6 animals was dosed at 20 mg/kg (body weight) of Compound A via oral gavage feeding (p.o.); group 3 with 7 rats was dosed at 50 mg/kg of Compound A, and the fourth group with 7 rats received Gabapentine at 50 mg/kg via p.o. in the same vehicle as a positive control group. Those rats were habituated in the enclosure and 50% of paw withdrawal thresholds (grams of force) were measured using a set of von Frey filaments, as described in the previous section, at time points of 1, 2, 3, 6, and 24 hours postdosing in a blinded fashion. The tester had no knowledge of which animals received drug or vehicle. It was noted that rats tested were very sleepy in the late afternoon (for 6 hour postdosing measurement), thus the data would not be reliable for 6-hour postdosing time points. […] After finishing the 24 hour postdosing measurement, the paw withdrawal threshold of each animal was calculated and data was analyzed.
# [4] = 20 mg/kg p.o. in 1% methylcellulose
compound,measurement,setting,value
"CC(=O)Nc1ccc(C(=O)NC(C)(C)C)cc1 [Compound A, N-tert-butyl-4-acetamidobenzamide]",nerve fiber density in spinal cord tissue vs vehicle control,[1],significantly higher nerve fiber density
same,"functional neurological outcome, BBB score",[2],no significant effects were observed
same,analgesic effect on neuropathic pain (in words),[3]; [4],has an analgesic effect
same,onset of analgesic effect,[3]; [4],fast onset (one-hour postdosing)
same,time of peak analgesic effect postdosing,[3]; [4],2 h
same,paw withdrawal threshold,"[3]; 20 mg/kg p.o. in 1% methylcellulose, vehicle about 4 grams",greater than 7 grams
same,pain blocking effect (in words),[3]; 50 mg/kg p.o. in 1% methylcellulose,"showed a pain blocking effect at 1 hour postdosing, with the effect diminished later on"
same,analgesic effect compared with positive control,[3]; Compound A 20 mg/kg p.o. vs Gabapentine 50 mg/kg p.o.,comparable to the positive control
